Experiment [1] relates to Pseudomonas aeruginosa ATCC 27853. The settings on record: Gram negative reference strain.
The test system of experiment [2] is Klebsiella pneumoniae ATCC 13883. The settings on record: Gram negative reference strain.
Experiment [3] deals with Proteus mirabilis ATCC 7002. The settings on record: Gram negative reference strain.
In experiment [4] the test system is Escherichia coli ATCC 25922. Conditions: Gram negative reference strain.
Another experiment deals with E. Coli-ESBL positive. Conditions: Gram negative clinical isolate.
For experiment [5], the system named is Enterococcus faecalis ATCC 29212. Conditions: Gram positive reference strain.
In experiment [6] the test system is P. aeruginosa-gentamicin^s, meropenem^s. The settings on record: Gram negative clinical isolate.
The test system of experiment [7] is S. aureus MSSA. The settings on record: Gram positive clinical isolate.
For experiment [8], the system named is Enterobacter cloacae. Conditions: Gram negative clinical isolate.
For experiment [9], the system named is S. epidermidis MSSE. Conditions: Gram positive clinical isolate.
The test system of experiment [10] is Enterococcus faecalis (clinical isolate). Conditions: Gram positive clinical isolate.
In experiment [11] the test system is K. pneumoniae-ESBL negative. Conditions: Gram negative clinical isolate.
The next experiment relates to Enterobacter aerogenes. The experiment in a line: microbe, parasite or virus in culture. Conditions: Klebsiella aerogenes, read-out: Minimum Inhibitory Concentration.
Experiment [12] deals with P. aeruginosa-gentamicin^s, meropenem^s. Put plainly: microbe, parasite or virus in culture. Conditions: Pseudomonas aeruginosa, read-out: Minimum Inhibitory Concentration.
The subject of a further experiment is S. aureus MRSA. Put plainly: microbe, parasite or virus in culture. Conditions: Staphylococcus aureus, read-out: Minimum Inhibitory Concentration.
In the next experiment the test system is K. pneumoniae B2511. Put plainly: MIC, broth microdilution. The format is cell-based. The settings on record: Klebsiella pneumoniae, Gram negative clinical isolate, read-out: Minimum Inhibitory Concentration. On the technique in general: Broth dilution looks for growth in wells or tubes with falling amounts of substance.
For experiment [13], the system named is K. pneumoniae-ESBL positive. The experiment in a line: microbe, parasite or virus in culture. The settings on record: Klebsiella pneumoniae, read-out: Minimum Inhibitory Concentration.
Experiment [14] deals with Enterococcus faecium (clinical isolate). Put plainly: MIC, broth microdilution. Conditions: Gram positive clinical isolate; for MIC: read-out: Minimum Inhibitory Concentration. The format is cell-based.
The subject of another experiment is S. epidermidis B32954. The experiment in a line: MIC, broth microdilution. It is filed as cell-based, Staphylococcus epidermidis. The settings on record: Staphylococcus epidermidis, B32954; Gram positive clinical isolate; read-out: Minimum Inhibitory Concentration.
The test system of experiment [15] is Staphylococcus aureus ATCC 24213. Put plainly: microbe, parasite or virus in culture. The settings on record: ATCC24213, read-out: Minimum Inhibitory Concentration.
Experiment [16] concerns K. pneumoniae-ESBL negative. The experiment in a line: microbe, parasite or virus in culture. The settings on record: Klebsiella pneumoniae, read-out: Minimum Inhibitory Concentration.
In experiment [17] the test system is Proteus mirabilis ATCC 7002. Put plainly: microbe, parasite or virus in culture. Conditions: ATCC7002, read-out: Minimum Inhibitory Concentration.
The test system of experiment [18] is Acinetobacter baumannii ATCC 19606. The experiment in a line: microbe, parasite or virus in culture. Conditions: ATCC19606, read-out: Minimum Inhibitory Concentration.
The test system of a further experiment is E. coli U23773^r. Put plainly: microbe, parasite or virus in culture. The settings on record: Escherichia coli, read-out: Minimum Inhibitory Concentration.
The subject of experiment [19] is Enterobacter cloacae. The experiment in a line: microbe, parasite or virus in culture. Conditions: read-out: Minimum Inhibitory Concentration.
Experiment [20] deals with Pseudomonas aeruginosa ATCC 27853. Put plainly: microbe, parasite or virus in culture. Conditions: ATCC27853, read-out: Minimum Inhibitory Concentration.
For experiment [21], the system named is S. aureus MSSA. Put plainly: microbe, parasite or virus in culture. Conditions: Staphylococcus aureus, read-out: Minimum Inhibitory Concentration.
Experiment [22] relates to Enterococcus faecalis ATCC 29212. The experiment in a line: microbe, parasite or virus in culture. The settings on record: ATCC29212, read-out: Minimum Inhibitory Concentration.
Experiment [23] concerns S. epidermidis MSSE. Put plainly: microbe, parasite or virus in culture. Conditions: Staphylococcus epidermidis, read-out: Minimum Inhibitory Concentration.
The subject of another experiment is S. epidermidis MRSE. The experiment in a line: microbe, parasite or virus in culture. Conditions: Staphylococcus epidermidis, read-out: Minimum Inhibitory Concentration.
The subject of experiment [24] is Klebsiella pneumoniae ATCC 13883. The experiment in a line: microbe, parasite or virus in culture. The settings on record: ATCC13883, read-out: Minimum Inhibitory Concentration.

Several values for one entry are separate records, joined by “and”; a condition that tells them apart may be missing. Identical values can stand only once. Like-named read-outs stand apart in the source and are kept apart here.

With `CC(=O)N[C@H](CCCNC(=N)N)C(=O)N[C@H](CCCNC(=N)N)C(=O)N[C@H](CCCNC(=N)N)C(=O)N[C@H](CCCNC(=N)N)C(=O)N[C@H](CCCNC(=N)N)C(=O)N[C@H](CCCNC(=N)N)C(=O)N[C@H](CCCNC(=N)N)C(=O)N[C@H](CCCNC(=N)N)C(=O)N[C@H](CCCNC(=N)N)C(=O)O` [Compound 12, D-Arg-9-mer-NHAc], the “Minimum Inhibitory Concentration” value in experiment [1] was > 256.0 mg/liter and 127.64 μM; in [2], 96.0 mg/liter and 47.86 μM; in [3], > 256.0 mg/liter and 127.64 μM; in [4] it was 128.0 mg/liter and 63.82 μM; in the experiment on E. Coli-ESBL positive, 64.0 mg/liter and 31.91 μM; in experiment [5], 64.0 mg/liter and 31.91 μM. Besides, the “Minimum Inhibitory Concentration” value in experiment [6] was > 256.0 mg/liter and 127.64 μM; in the experiment with S. aureus MSSA [7], > 128.0 mg/liter and 63.82 μM; in the experiment on Enterobacter cloacae [8], 128.0 mg/liter and 63.82 μM; in the experiment with S. epidermidis MSSE [9], 8.0 mg/liter and 3.99 μM; in experiment [10], 128.0 mg/liter and 63.82 μM; in experiment [11], 256.0 mg/liter and 127.64 μM.

In the case of `NCC1OC(OC2C(CO)OC(OC3C(O)C(N)CC(N)C3OC3OC(CN)C(O)C(O)C3N)C2O)C(N)C(O)C1O` (stereo not drawn) [Neomycin], the MIC in the experiment on Enterobacter aerogenes was 0.7 µg/mL and 0.77 µM; in experiment [12] it was 16 µg/mL and 17.6 µM; with S. aureus MRSA, 1 µg/mL and 1.1 µM; in the experiment on K. pneumoniae B2511 it was 1.5 µg/mL and 1.65 µM; in experiment [13], 1.5 µg/mL and 1.65 µM; in experiment [14] (Enterococcus faecium), 256 µg/mL and 282 µM. Besides, the MIC was 0.5 µg/mL and 0.55 µM in the experiment on S. epidermidis B32954; 1.5 µg/mL and 1.65 µM in experiment [15]; 0.7 µg/mL and 0.77 µM in [16]; 1.5 µg/mL and 1.65 µM in experiment [17]; 6 µg/mL and 6.6 µM in experiment [18]; 141 µM and 128 µg/mL in the experiment with E. coli U23773^r. Besides, the MIC in the experiment on Enterobacter cloacae [19] was 4 µg/mL and 4.4 µM; in experiment [20], 128 µg/mL and 141 µM; with S. aureus MSSA [21], 1 µg/mL and 1.1 µM; in experiment [22], 128 µg/mL and 141 µM; in the experiment with S. epidermidis MSSE [23] it was 0.5 µg/mL and 0.55 µM; in the experiment with S. epidermidis MRSE, 0.5 µg/mL and 0.55 µM. Also, the MIC in experiment [24] is 0.7 µg/mL and 0.77 µM.

Consider D-Arg-9-mer-neomycin [Compound 14], for which the “Minimum Inhibitory Concentration” value in experiment [1] is > 256.0 mg/liter and 88.22 μM; in experiment [2], 12.0 mg/liter and 4.14 μM; in experiment [3], 64.0 mg/liter and 22.05 μM; in [14], 24.0 mg/L; in [4], 32.0 mg/liter and 11.02 μM; in the experiment on E. Coli-ESBL positive, 24.0 mg/liter and 8.27 μM. The “Minimum Inhibitory Concentration” value was 128.0 mg/liter and 44.11 μM in [5]; > 256.0 mg/liter and 88.22 μM in [6]; 16.0 mg/liter and 5.51 μM in the experiment with S. aureus MSSA [7]; 64.0 mg/liter and 22.05 μM in the experiment on Enterobacter cloacae [8]; 0.52 µM in the experiment on S. epidermidis MSSE [9]; 64.0 mg/liter and 22.05 μM in experiment [10]. In [11], the “Minimum Inhibitory Concentration” value is 64.0 mg/liter and 22.05 μM. Moreover, the MIC in [14] turned out to be 8.27 µM.

The values above are taken from US20060166867A1, “Novel conjugates of polysaccharides and uses thereof” (priority 2003, published 2006).
